Laboratory results taken from patent US20250049781A1, “PHARMACEUTICAL COMPOSITIONS COMPRISING RPL554 IN HFA-134A FOR ADMINISTRATION BY INHALATION” (VERONA PHARMA PLC, priority 2018, published 2025).
“And” between values parts separate entries of the source, which are not always exact repeats. Identical values can stand only once.

Experiments:
Assay type in all cases: physicochemical
[1] = Solubility of RPL554 in ethanol (USP/BP criteria)
Protocol: However, the observations of dissolution and recrystallisation with the lowest product strength (10 μg/actuation) prompted further investigations into the solubility of RPL554 in ethanol in the presence of oleic acid.
The original assessment was carried out using Analytical Reagent grade ethanol. […] Unexpectedly, RPL554 was therefore found to have some solubility in ethanol.

[2] = RPL554 dissolved in HFA-134a/ethanol with or without oleic acid (UV/Visible); details: 24 hours at ambient temperature
Protocol: Samples were prepared by adding 1.5 mg of RPL554 to plain 14 mL aluminium canisters, with ethanol, oleic acid and HFA-134a. Excipients were added to the canisters to maintain an ethanol/oleic acid ratio of a 50:1 (see Table 8). Corresponding canisters were also produced containing RPL554, ethanol and HFA-134a only. The canisters were crimped with 63 μL pMDI valves, with shortened dip tubes (FIG. 3), and filled to 11.6 g with HFA-134a through the valve. The length of the dip tubes was sufficient to extend into the liquid propellant/co-solvent phase only (i.e. after the API particles had settled). The samples were placed in an ultrasonic bath for 30 seconds.
All the canisters were left for 24 hours at ambient temperature to settle and to establish dissolution equilibrium. To determine the amount of API dissolved, each canister was fired five times, in an upright position (through a cannula fitted to the valve stem) into a 10.0 cm^3 volumetric flask. The flask was made up to volume with dehydrated ethanol and the solution was analysed using UV/Visible spectroscopy (Perkin Elmer, Model Lambda 35). The concentration of RPL554 was calculated, quantitatively, against a three point standard curve.

[3] = Sedimentation score of RPL554 suspensions in HFA-134a, HFA-227ea and mixtures (visual, glass vials); set-up: key to Sedimentation score: 1 = fastest sediment/cream (undesirable), 10 = slowest (acceptable)
Protocol: (§1) Samples were made by adding the required amounts of RPL554 (see Table 3) to 15 ml pressure rated clear glass vials. The propellant, HFA-134a, HFA-227ea or combinations of the two (see Table 4) was added through the valve and the samples were mixed in an ultrasonic bath for 30 seconds. The same target fill weight of 11.6 g (±0.5 g) was used for all samples. The appearance of the API particles in the propellants was assessed with regards to both the sedimentation rate and flocculation behaviour (see FIG. 1). The sedimentation rate of the formulations was visually assessed after suspension agitation by recording images of the glass vials using a high-speed camera. The suspension quality was determined by assigning a sedimentation score of from 1 to 10 based on the amount of active particles which had settled or floated in 30 seconds, with 1being the fastest to sediment/cream (i.e. undesirable) and 10 being the slowest to sediment/cream (i.e. acceptable).

[4] = Sedimentation score of pMDI formulations containing HFA-134a, oleic acid and ethanol; set-up: key: 1 = fastest sedimentation (undesirable), 10 = slowest (acceptable)
Protocol: as §1
In order to seek to improve the suspension characteristics the inclusion of additional excipients was investigated. In particular, formulations further comprising a surfactant (oleic acid, Ph. Eur./BP) and a co-solvent (ethanol, 100% USP-NF) were prepared.

Solubility classification according to the USP/BP criteria ([1]; Analytical Reagent grade ethanol, previous (original) assessment): practically insoluble
Solubility classification according to the USP/BP criteria ([1]; dehydrated alcohol (100% USP-NF ethanol), reassessment): very slightly soluble
Effect of oleic acid on the solubility of RPL554 ([2]; HFA-134a/ethanol, ethanol/oleic acid ratio 50:1): no effect
Sedimentation score ([3]; 10 μg/actuation, HFA-134a 0% w/w, HFA-227ea 100% w/w): 3
Sedimentation score ([3]; 10 μg/actuation, HFA-134a 25% w/w, HFA-227ea 75% w/w): 5
Sedimentation score ([3]; 10 μg/actuation, HFA-134a 50% w/w, HFA-227ea 50% w/w): 4
Sedimentation score ([3]; 10 μg/actuation, HFA-134a 75% w/w, HFA-227ea 25% w/w): 6
Sedimentation score ([3]; 10 μg/actuation, HFA-134a 100% w/w, HFA-227ea 0% w/w, scale 1-10, 10 slowest): 6
Sedimentation score ([3]; 50 μg/actuation, HFA-134a 0% w/w, HFA-227ea 100% w/w): 3
Sedimentation score ([3]; 50 μg/actuation, HFA-134a 25% w/w, HFA-227ea 75% w/w): 4
Sedimentation score ([3]; 50 μg/actuation, HFA-134a 50% w/w, HFA-227ea 50% w/w): 3
Sedimentation score ([3]; 50 μg/actuation, HFA-134a 75% w/w, HFA-227ea 25% w/w): 6
Sedimentation score ([3]; 50 μg/actuation, HFA-134a 100% w/w, HFA-227ea 0% w/w): 6
Sedimentation score ([3]; 150 μg/actuation, HFA-134a 0% w/w, HFA-227ea 100% w/w): 3
Sedimentation score ([3]; 150 μg/actuation, HFA-134a 25% w/w, HFA-227ea 75% w/w): 4
Sedimentation score ([3]; 150 μg/actuation, HFA-134a 50% w/w, HFA-227ea 50% w/w): 3
Sedimentation score ([3]; 150 μg/actuation, HFA-134a 75% w/w, HFA-227ea 25% w/w): 3
Sedimentation score ([3]; 150 μg/actuation, HFA-134a 100% w/w, HFA-227ea 0% w/w): 5
Sedimentation score ([3]; 500 μg/actuation, HFA-134a 0% w/w, HFA-227ea 100% w/w): 2
Sedimentation score ([3]; 500 μg/actuation, HFA-134a 25% w/w, HFA-227ea 75% w/w): 3
Sedimentation score ([3]; 500 μg/actuation, HFA-134a 50% w/w, HFA-227ea 50% w/w): 2
Sedimentation score ([3]; 500 μg/actuation, HFA-134a 75% w/w, HFA-227ea 25% w/w): 3
Sedimentation score ([3]; 500 μg/actuation, HFA-134a 100% w/w, HFA-227ea 0% w/w): 3
Sedimentation score ([3]; 1000 μg/actuation, HFA-134a 0% w/w, HFA-227ea 100% w/w): 2
Sedimentation score ([3]; 1000 μg/actuation, HFA-134a 25% w/w, HFA-227ea 75% w/w): 4
Sedimentation score ([3]; 1000 μg/actuation, HFA-134a 50% w/w, HFA-227ea 50% w/w): 3
Sedimentation score ([3]; 1000 μg/actuation, HFA-134a 75% w/w, HFA-227ea 25% w/w): 4
Sedimentation score ([3]; 1000 μg/actuation, HFA-134a 100% w/w, HFA-227ea 0% w/w): 4
Sedimentation score ([4]; 10 μg/actuation, ethanol 1% w/w, oleic acid 0.010% w/w): 6
Sedimentation score ([4]; 10 μg/actuation, ethanol 1% w/w, oleic acid 0.500% w/w): 1
Sedimentation score ([4]; 10 μg/actuation, ethanol 5% w/w, oleic acid 0.255% w/w): 6
Sedimentation score ([4]; 10 μg/actuation, ethanol 15% w/w, oleic acid 0.010% w/w): 6
Sedimentation score ([4]; 10 μg/actuation, ethanol 15% w/w, oleic acid 0.500% w/w): 6
Sedimentation score ([4]; 150 μg/actuation, ethanol 1% w/w, oleic acid 0.255% w/w): 2
Sedimentation score ([4]; 150 μg/actuation, ethanol 5% w/w, oleic acid 0.010% w/w): 4
Sedimentation score ([4]; 150 μg/actuation, ethanol 5% w/w, oleic acid 0.255% w/w (six replicate samples)): 5 (5×) and 4
Sedimentation score ([4]; 150 μg/actuation, ethanol 5% w/w, oleic acid 0.500% w/w): 4
Sedimentation score ([4]; 150 μg/actuation, ethanol 15% w/w, oleic acid 0.255% w/w): 8
Sedimentation score ([4]; 1000 μg/actuation, ethanol 1% w/w, oleic acid 0.010% w/w): 3
Sedimentation score ([4]; 1000 μg/actuation, ethanol 1% w/w, oleic acid 0.500% w/w): 2
Sedimentation score ([4]; 1000 μg/actuation, ethanol 5% w/w, oleic acid 0.255% w/w): 3
Sedimentation score ([4]; 1000 μg/actuation, ethanol 15% w/w, oleic acid 0.010% w/w): 4
Sedimentation score ([4]; 1000 μg/actuation, ethanol 15% w/w, oleic acid 0.500% w/w): 5
Structure (SMILES): COc1cc2c(cc1OC)-c1c/c(=N\c3c(C)cc(C)cc3C)n(CCNC(N)=O)c(=O)n1CC2 [RPL554, 9,10-dimethoxy-2-(2,4,6-trimethylphenylimino)-3-(N-carbamoyl-2-aminoethyl)-3,4,6,7-tetrahydro-2H-pyrimido[6,1-a]isoquinolin-4-one]
Amount of dissolved RPL554 versus ethanol concentration ([2]; HFA-134a with 1-12% w/w ethanol): increased with increasing ethanol concentration
Suspension behaviour on and after shaking ([3]; formulation in HFA-134a): readily suspended on shaking, with rapid flocculation and gradual sedimentation observed after shaking was stopped
Suspension behaviour on and after shaking ([3]; formulation in HFA-227ea): creaming was observed after the cessation of shaking
Suspension behaviour on and after shaking ([3]; formulation in blend of HFA-134a/HFA-227ea (50/50)): creaming was observed after the cessation of shaking
